According to patent US6780619B2, “D-aminoacylase and gene encoding the same” (priority 2000, dated 2004):

Assays:
[1] = in vivo; cited from earlier work
[2] = system: D-aminoacylase; assay: Stabilizer/activator effect on D-aminoacylase activity; format: biochemical, Hypomyces mycophilus
Source text: (f) stabilizer: the enzyme activity is stabilized by reducing agents and activated by ICH2CONH2.

[3] = system: D-aminoacylase; assay: Substrate specificity of the D-aminoacylase (amino acid produced, assayed by TNBS or HPLC method); format: biochemical, Hypomyces mycophilus; details: for catalytic activity of the D-aminoacylase for the substrate: 20 mM substrate, 50 mM Tris-HCl pH 7.5, 30° C., 20 minutes; for substrate specificity: the enzyme acts on / not on the substrate: purified enzyme, property (c)
Procedure: The substrate specificity of the D-aminoacylase of the present invention can be tested by the following procedure. For example, an enzyme solution (1 μl) is mixed and incubated with 50 mM Tris-HCl (pH 7.5) buffer (total volume: 1.0 ml) containing 20 mM substrate (various N-acetyl-D-amino acids) at 30° C. for 20 minutes. By measuring the amounts of amino acid synthesized by this reaction, enzymatic activities for respective substrates can be compared with each other. Assay for amino acid is performed by TNBS (trinitrobenzenesulfonic acid) method or HPLC method. For example, D-tryptophan, which may be used as a standard product in the reaction, is assayed for a comparison of enzymatic activity; by taking the amount of enzyme required for the production of 1 μmol D-tryptophan as 1 unit (or U), the reactivity is compared between different enzymes or is compared with the reactivity assayed for other types of amino acids.

[4] = Optimal reaction temperature of the purified D-aminoacylase; format: biochemical, Hypomyces mycophilus; details: reaction at pH 7.5
Procedure: (e) optimal temperature: for the reaction at pH 7.5, the enzyme activity is optimal at about 45° C.; and […]

## O=C1CCC(N2C(=O)c3ccccc3C2=O)C(=O)N1 [D(R)-form thalidomide, thalidomide]
[1]
  teratogenic activity: no teratogenic activity

## NC(=O)CI [ICH2CONH2]
[2]
  effect on D-aminoacylase enzyme activity: activated

## O=C1CCC(N2C(=O)c3ccccc3C2=O)C(=O)N1 [L(S)-form, thalidomide]
[1]
  teratogenic activity: strong teratogenicity

## CC(=O)N[C@H](CC(C)C)C(=O)O [N-acetyl-D-leucine]
[3]
  catalytic activity of the D-aminoacylase for the substrate: efficiently catalyzes the reaction
  substrate specificity: the enzyme acts on / not on the substrate: acts on

## CSCC[C@@H](NC(C)=O)C(=O)O [N-acetyl-D-methionine]
[3]
  catalytic activity of the D-aminoacylase for the substrate: efficiently catalyzes the reaction
  substrate specificity: the enzyme acts on / not on the substrate: acts on

## CC(=O)N[C@H](Cc1ccccc1)C(=O)O [N-acetyl-D-phenylalanine]
[3]
  catalytic activity of the D-aminoacylase for the substrate: very efficiently catalyzes the reaction
  substrate specificity: the enzyme acts on / not on the substrate: acts on

## CC(=O)N[C@H](Cc1c[nH]c2ccccc12)C(=O)O [N-acetyl-D-tryptophan]
[3]
  catalytic activity of the D-aminoacylase for the substrate: efficiently catalyzes the reaction
  substrate specificity: the enzyme acts on / not on the substrate: acts on

## CC(=O)N[C@@H](C(=O)O)C(C)C [N-acetyl-D-valine]
[3]
  catalytic activity of the D-aminoacylase for the substrate: catalyzes the reaction
  substrate specificity: the enzyme acts on / not on the substrate: acts on

## CC(=O)N[C@@H](CC(C)C)C(=O)O [N-acetyl-L-leucine]
[3]
  catalytic activity of the D-aminoacylase for the substrate: substantially no catalytic activity
  substrate specificity: the enzyme acts on / not on the substrate: not on

## CSCC[C@H](NC(C)=O)C(=O)O [N-acetyl-L-methionine]
[3]
  catalytic activity of the D-aminoacylase for the substrate: substantially no catalytic activity
  substrate specificity: the enzyme acts on / not on the substrate: not on

## CC(=O)N[C@@H](Cc1ccccc1)C(=O)O [N-acetyl-L-phenylalanine]
[3]
  catalytic activity of the D-aminoacylase for the substrate: substantially no catalytic activity
  substrate specificity: the enzyme acts on / not on the substrate: not on

## CC(=O)N[C@@H](Cc1c[nH]c2ccccc12)C(=O)O [N-acetyl-L-tryptophan]
[3]
  catalytic activity of the D-aminoacylase for the substrate: substantially no catalytic activity
  substrate specificity: the enzyme acts on / not on the substrate: not on

## CC(=O)N[C@H](C(=O)O)C(C)C [N-acetyl-L-valine]
[3]
  catalytic activity of the D-aminoacylase for the substrate: substantially no catalytic activity
  substrate specificity: the enzyme acts on / not on the substrate: not on

## O=C(CCl)N[C@H](Cc1ccccc1)C(=O)O [N-chloroacetyl-D-phenylalanine]
[3]
  catalytic activity of the D-aminoacylase for the substrate: very efficiently catalyzes the reaction

B1: D-aminoacylase: D-aminoacylase purified from Hypomyces mycophilus IFO 6785, comprising the amino acid sequence of SEQ ID NO: 2 (protein)
chain: MRTEILFHSATVITGDEAAQPFVADVLVSKGLIAKIGNPGSINATPDTRHLDVTGYILSPGFIDMHAHSDLYLLSHPDHEAKITQGCTTEVVGQDGISYAPIRNVDQLRAIREQIAGWNGNPTDEECRTTLKGVGMFEWQTIGEYLDCLERNRTATNVAMLVPQGNLRLLACGPYDTPASAEEIQDQIQLLREAMAQGAVGMSSGLTYTPGMYASTSELASLCAALAQEFPGAFYAPHHRSYGFQAIESYAEMLDLGESTGCPIHLTHATLNFSENKGKAPVLISMVDKSLAAGVDVTLDTYPYLPGCTTLAALLPSWASAGGPQETLKRLEDAESREKIRIAVEIKGCDGGHGIPTNWDEIQIGTTNEPSIASYSGRRLSEVAQSVGKPTIEVFFEILQKDKLATSCIMHVGNEENVRQIMQHRVHMAGSDGILHGQTLHPRAYGTFTRYLGHYSRELSLVALPSMIAHLTSRPAKRLSVYPYRGLIAEGSAADIVVFNPETVKDMSTYEEPKVPSRGIRFVLVNGQIAVDEGKMTGTRGGKTLRRSTDGKVKARDE
[4]
  optimal temperature of enzyme activity: about 45 °C
